Measured values: article PMC8957246, “Synthesis and diverse biological activity profile of triethylammonium isatin-3-hydrazones” (ADMET & DMPK, 2022)
Like-named read-outs stand apart in the source and are kept apart here. One block for each compound: values may come before it.

What was measured:
Type in all cases: cell-based
[1] = test system: Staphylococcus aureus ATCC 6538P FDA 209P; assay: Antimicrobial activity, serial dilution (MIC/MBC), Sa; details: Staphylococcus aureus; for MBC: read-out: MBC (converted)
[2] = test system: Phytophthora cactorum VKM F-985; assay: Fungicidal activity, radial growth inhibition, P. cactorum; details: for EC50: Phytophthora cactorum, 168 h, day 7, EC50 = 50C/I, read-out: EC50, μg/mL at day 7
From the text: (§1) Plant pathogenic bacterial strains Micrococcus luteus B-109, Pectobacterium atrosepticum 1043, Pectobacterium carotovorum subsp. carotovorum MI, Pseudomonas fluorescens EL-2.1, and Xanthomonas campestris B-610 and fungal strain Fusarium oxysporum IBPPM 543 were obtained from the specialized scientific culture collection of IBPPM RAS (WFCC no. 975, WDCM no. 1021) (CM IBPPM). Pathogenic fungus Phytophthora cactorum VKM F-985 provided by the All-Russian Collection of Microorganisms (VKM) and deposited at A.E. Favorsky Irkutsk Institute of Chemistry, SB RAS, was also used as test organism. Bacteria M. luteus, P. carotovorum subsp. carotovorum, P. atrosepticum, and Ps. fluorescens were grown in meat-peptone medium (BP), and X. campestris was grown in the medium with glucose, yeast extract, and calcium carbonate (GYCa). Solid media contained Bacto agar (18 g/L); pH was adjusted to 7.2-7.4. All bacterial cultures were grown at 28°C. The mycelial cultures of F. oxysporum and P. cactorum were grown on a glucose-peptone-yeast (GPY) nutrient medium at 27 °C. For inoculum preparation, both fungal strains were initially grown on the agar GPY in Petri dishes and then transferred into the seed medium by punching out 5 mm of the agar plate culture with a self-designed cutter.
For the fungicidal activity analysis, radial growth (colony diameters) of the fungi on a solid medium in the absence and in the presence of the compounds 3a,c-g solutions at various concentrations were compared. The method consisted of the following: sterile, melted and then cooled to about 60°C GPY agar medium (20.0 ml) was mixed with the precisely measured volumes of the solutions under question, and poured into a sterile Petri dish (90 mm i.d.). After solidification of GPY agar, the media were inoculated by the fungus using 10-day-old cultures of F. oxysporum or P. cactorum. The inoculation was done by transferring a 5-mm (i.d.) GPY-agar block covered with mycelium to the center of the Petri dish followed by incubation in a thermostat at 27°C. The fungicidal effect was scored by the size of mycelium colony on a Petri dish compared to the control without fungicidal admixtures to GPY agar. Each treatment was performed in at least four replicates in two independent experiments. The observation period ended when the control Petri dish was filled with mycelium (usually after 12 days). The inhibition of the phytopathogen colony growth by the compounds 3a,c-g or fludioxonil solutions was calculated as a percentage by which the mycelium radial propagation was decreased compared to the unaffected control, the latter was taken as 100 % of growth (or zero percent of inhibition). The EC50 value was calculated as the compound concentration at which the radial growth of the fungus colony was decreased by 50 % relative to the non-fungicidal control, according to the formula EC50 = 50C/I based on the approach developed e.g., in [34, 35].
(§2) The solutions of tested compounds were prepared with a concentration of 2 mmol/l (stock solution). For comparison, test compounds were also commonly applied disinfecting agents and antibiotics.

Micrococcus luteus B-109 = assay: Bactericidal activity, agar diffusion, M. luteus; details: Micrococcus luteus, B109, 2 mM/L
From the text: as §1
Antibacterial and antifungal activities of the compounds were explored using the agar diffusion method and the technique of a phytopathogen radial growth inhibition. Method of diffusion in agar (measuring the diameter of growth inhibition zones) was used for determining the bactericidal activity. The 6-mm wells were made in ager medium (GYCa for Xanthomonas campestris or BP for other bacteria). Bacterial suspensions were distributed over the agar surface, and the tested compound's solution (150 μl) was added to each well. The width of growth inhibition zones around the wells was determined after incubation for 36-40 h.
as §2

[3] = 150 μl per well, 36-40 h, read-out: width of the inhibition zone
[4] = read-out: Inhibition zone width (mm), not less

MIC [1]: 8.9 ± 0.7 µM
SMILES: CC[N+](CC)(CC)CC(=O)N/N=C1\C(=O)N(Cc2cc(C(C)(C)C)c(O)c(C(C)(C)C)c2)c2cccc(Br)c21 [Compound 3e, 2-(2-(1-(3,5-Di-tert-butyl-4-hydroxybenzyl)-4-bromo-2-oxoindolin-3-ylidene)hydrazinyl)-N,N,N-triethyl-2-oxoethanammonium bromide]
MBC [1]: 17.7 µM
Inhibition value, I (%) ([2]; C 1.36 μg/mL, age of the fungus 3 days): 8%
Inhibition value, I (%) ([2]; C 1.36 μg/mL, age of the fungus 5 days): 14%
Inhibition value, I (%) ([2]; C 1.36 μg/mL, age of the fungus 7 days): 22%
Inhibition value, I (%) ([2]; C 1.36 μg/mL, age of the fungus 9 days): 10%
Inhibition value, I (%) ([2]; C 1.36 μg/mL, age of the fungus 12 days): 3%
Inhibition value, I (%) ([2]; C 3.41 μg/mL, age of the fungus 3 days): 13%
Inhibition value, I (%) ([2]; C 3.41 μg/mL, age of the fungus 5 days): 21%
Inhibition value, I (%) ([2]; C 3.41 μg/mL, age of the fungus 7 days): 34%
Inhibition value, I (%) ([2]; C 3.41 μg/mL, age of the fungus 9 days): 12%
Inhibition value, I (%) ([2]; C 3.41 μg/mL, age of the fungus 12 days): 5%
Inhibition value, I (%) ([2]; C 6.81 μg/mL, age of the fungus 3 days): 17%
Inhibition value, I (%) ([2]; C 6.81 μg/mL, age of the fungus 5 days): 33%
Inhibition value, I (%) ([2]; C 6.81 μg/mL, age of the fungus 7 days): 38%
Inhibition value, I (%) ([2]; C 6.81 μg/mL, age of the fungus 9 days): 16%
Inhibition value, I (%) ([2]; C 6.81 μg/mL, age of the fungus 12 days): 7%
Inhibition value, I (%) ([2]; C 10.22 μg/mL, age of the fungus 3 days): 39%
Inhibition value, I (%) ([2]; C 10.22 μg/mL, age of the fungus 5 days): 40%
Inhibition value, I (%) ([2]; C 10.22 μg/mL, age of the fungus 7 days): 53%
Inhibition value, I (%) ([2]; C 10.22 μg/mL, age of the fungus 9 days): 28%
Inhibition value, I (%) ([2]; C 10.22 μg/mL, age of the fungus 12 days): 18%
Inhibition value, I (%) ([2]; C 13.62 μg/mL, age of the fungus 3 days): 45%
Inhibition value, I (%) ([2]; C 13.62 μg/mL, age of the fungus 5 days): 62%
Inhibition value, I (%) ([2]; C 13.62 μg/mL, age of the fungus 7 days): 72%
Inhibition value, I (%) ([2]; C 13.62 μg/mL, age of the fungus 9 days): 70%
Inhibition value, I (%) ([2]; C 13.62 μg/mL, age of the fungus 12 days): 66%
EC50 [2]: 3.1 µg/mL
zone of inhibition at 2000 µM (Micrococcus luteus B-109; [3]): 13 mm
zone of inhibition at 2000 µM (Micrococcus luteus B-109; [4]): ≥ 13 mm

MIC [1]: 48.3 ± 3.9 µM
SMILES: CC[N+](CC)(CC)CC(=O)N/N=C1\C(=O)N(Cc2cc(C(C)(C)C)c(O)c(C(C)(C)C)c2)c2ccc([N+](=O)[O-])cc21 [Compound 3f, 2-(2-(1-(3,5-Di-tert-butyl-4-hydroxybenzyl)-5-nitro-2-oxoindolin-3-ylidene)hydrazinyl)-N,N,N-triethyl-2-oxoethanammonium bromide]
MBC [1]: 96.7 µM
Inhibition value, I (%) ([2]; C 1.29 μg/mL, age of the fungus 3 days): 17%
Inhibition value, I (%) ([2]; C 1.29 μg/mL, age of the fungus 5 days): 11%
Inhibition value, I (%) ([2]; C 1.29 μg/mL, age of the fungus 7 days): 2%
Inhibition value, I (%) ([2]; C 1.29 μg/mL, age of the fungus 9 days): 0%
Inhibition value, I (%) ([2]; C 1.29 μg/mL, age of the fungus 12 days): 0%
Inhibition value, I (%) ([2]; C 3.24 μg/mL, age of the fungus 3 days): 33%
Inhibition value, I (%) ([2]; C 3.24 μg/mL, age of the fungus 5 days): 19%
Inhibition value, I (%) ([2]; C 3.24 μg/mL, age of the fungus 7 days): 18%
Inhibition value, I (%) ([2]; C 3.24 μg/mL, age of the fungus 9 days): 1%
Inhibition value, I (%) ([2]; C 3.24 μg/mL, age of the fungus 12 days): 0%
Inhibition value, I (%) ([2]; C 6.47 μg/mL, age of the fungus 3 days): 35%
Inhibition value, I (%) ([2]; C 6.47 μg/mL, age of the fungus 5 days): 23%
Inhibition value, I (%) ([2]; C 6.47 μg/mL, age of the fungus 7 days): 20%
Inhibition value, I (%) ([2]; C 6.47 μg/mL, age of the fungus 9 days): 8%
Inhibition value, I (%) ([2]; C 6.47 μg/mL, age of the fungus 12 days): 1%
Inhibition value, I (%) ([2]; C 9.71 μg/mL, age of the fungus 3 days): 41%
Inhibition value, I (%) ([2]; C 9.71 μg/mL, age of the fungus 5 days): 36%
Inhibition value, I (%) ([2]; C 9.71 μg/mL, age of the fungus 7 days): 32%
Inhibition value, I (%) ([2]; C 9.71 μg/mL, age of the fungus 9 days): 20%
Inhibition value, I (%) ([2]; C 9.71 μg/mL, age of the fungus 12 days): 16%
Inhibition value, I (%) ([2]; C 12.94 μg/mL, age of the fungus 3 days): 59%
Inhibition value, I (%) ([2]; C 12.94 μg/mL, age of the fungus 5 days): 55%
Inhibition value, I (%) ([2]; C 12.94 μg/mL, age of the fungus 7 days): 53%
Inhibition value, I (%) ([2]; C 12.94 μg/mL, age of the fungus 9 days): 48%
Inhibition value, I (%) ([2]; C 12.94 μg/mL, age of the fungus 12 days): 30%
EC50 [2]: 8.99 µg/mL
zone of inhibition at 2000 µM (Micrococcus luteus B-109; [3]): 10 mm
zone of inhibition at 2000 µM (Micrococcus luteus B-109; [4]): ≥ 10 mm

MIC [1]: 11 ± 0.9 µM
SMILES: CC[N+](CC)(CC)CC(=O)N/N=C1\C(=O)N(Cc2cc(C(C)(C)C)c(O)c(C(C)(C)C)c2)c2c(Br)cc(Cl)cc21 [Compound 3g, 2-(2-(1-(3,5-Di-tert-butyl-4-hydroxybenzyl)-5-chloro-7-bromo-2-oxoindolin-3-ylidene)hydrazinyl)-N,N,N-triethyl-2-oxoethanammonium bromide]
MBC [1]: 21.9 µM
Inhibition value, I (%) ([2]; C 1.43 μg/mL, age of the fungus 3 days): 30%
Inhibition value, I (%) ([2]; C 1.43 μg/mL, age of the fungus 5 days): 29%
Inhibition value, I (%) ([2]; C 1.43 μg/mL, age of the fungus 7 days): 15%
Inhibition value, I (%) ([2]; C 1.43 μg/mL, age of the fungus 9 days): 1%
Inhibition value, I (%) ([2]; C 1.43 μg/mL, age of the fungus 12 days): 0%
Inhibition value, I (%) ([2]; C 3.58 μg/mL, age of the fungus 3 days): 38%
Inhibition value, I (%) ([2]; C 3.58 μg/mL, age of the fungus 5 days): 29%
Inhibition value, I (%) ([2]; C 3.58 μg/mL, age of the fungus 7 days): 22%
Inhibition value, I (%) ([2]; C 3.58 μg/mL, age of the fungus 9 days): 5%
Inhibition value, I (%) ([2]; C 3.58 μg/mL, age of the fungus 12 days): 0%
Inhibition value, I (%) ([2]; C 7.15 μg/mL, age of the fungus 3 days): 40%
Inhibition value, I (%) ([2]; C 7.15 μg/mL, age of the fungus 5 days): 33%
Inhibition value, I (%) ([2]; C 7.15 μg/mL, age of the fungus 7 days): 26%
Inhibition value, I (%) ([2]; C 7.15 μg/mL, age of the fungus 9 days): 14%
Inhibition value, I (%) ([2]; C 7.15 μg/mL, age of the fungus 12 days): 11%
Inhibition value, I (%) ([2]; C 10.73 μg/mL, age of the fungus 3 days): 48%
Inhibition value, I (%) ([2]; C 10.73 μg/mL, age of the fungus 5 days): 43%
Inhibition value, I (%) ([2]; C 10.73 μg/mL, age of the fungus 7 days): 41%
Inhibition value, I (%) ([2]; C 10.73 μg/mL, age of the fungus 9 days): 31%
Inhibition value, I (%) ([2]; C 10.73 μg/mL, age of the fungus 12 days): 26%
Inhibition value, I (%) ([2]; C 14.30 μg/mL, age of the fungus 3 days): 51%
Inhibition value, I (%) ([2]; C 14.30 μg/mL, age of the fungus 5 days): 48%
Inhibition value, I (%) ([2]; C 14.30 μg/mL, age of the fungus 7 days): 46%
Inhibition value, I (%) ([2]; C 14.30 μg/mL, age of the fungus 9 days): 41%
Inhibition value, I (%) ([2]; C 14.30 μg/mL, age of the fungus 12 days): 28%
EC50 [2]: 4.77 µg/mL
zone of inhibition at 2000 µM (Micrococcus luteus B-109; [3]): 7 mm
